The values that follow come from patent publication US10758511B2, “Stable analogs of CYP450 lipid metabolites and inhibitors of soluble epoxide hydrolase” (Massachusetts Eye and Ear Infirmary, priority 2015, dated 2020).

Values after ≈ are worked out from the molar mass of the structure shown. Marks after values point to notes of the source that are not given here.

Data set [1] is described as follows: Formulations of selected inhibitors of sEH (mg/mL). Type of data set: physicochemical.
Data set [2] deals with peripheral blood leukocytes (PBLs). Kind of data set: Autoperfused microflow chamber assay, leukocyte rolling velocity. Type of data set: in vivo, mouse. The following applies: chamber coated with ICAM-1 and P-selectin, 50 μg/kg/day i.p., day 3 after CNV induction. The protocol: A combination of intercellular adhesion molecule 1 (ICAM-1) and P-selectin (R&D Systems), each at a concentration of 5 μg/mL, was used to coat translucent microchambers (0.4×0.04×50 mm, VitroCom) overnight at 4° C. Biocompatible polyester tubing (PE10; Becton Dickinson) was attached to both ends of each microchamber, and the apparatus was subsequently incubated for 1 hour with 0.1% BSA (Sigma-Aldrich) in order to prevent nonspecific leukocyte interaction with the inner surface of the apparatus. The left jugular vein and right carotid artery in an anesthetized mouse were surgically connected to the free ends of both tubes, thus allowing blood to flow from the right carotid artery and into the microchamber (via the inlet tube), and then into the left jugular vein (via the outlet tube) for recirculation. Blood flow rate through the microchamber was controlled via a screw valve on the inlet tube that could change the tube diameter. For continuous blood pressure measurements, three-way connectors were used to embed microtransducers (Harvard Apparatus) before and after the microchamber. Digitizing the analog output from these microtransducers required an A/D converter (ML785 PowerLab/8SP; ADInstruments) linked to a computer running CHART V7 software (ADInstruments). […] A fixed-stage intravital microscope (Leica) with a 63× objective and a monochromic camera (DFC 360 FX; Leica) were used to observe and record leukocyte rolling along immobilized adhesion molecules. Recordings lasted at least 30 s and incorporated ten different fields of view. Using ImageJ software, leukocyte rolling velocity was calculated based on individual cell displacement along the surface of the chamber over time (i.e., Δd/Δt). Flux was calculated as the mean number of leukocytes interacting with the chamber surface per field of view (i.e., average of 10 independent fields of view).
Autoperfused Microflow Chamber assay was used to assess the impact of 17,18-EEQ and 19,20-EDP on systemic leukocyte recruitment during CNV development. The rolling velocity of peripheral blood leukocytes (PBLs) in the circulating blood was measured 3 days post CNV induction, as this reflects the peak of immune cell infiltration in this model.

Another data set deals with C57BL/6 mice. Kind of data set: Laser-induced CNV model (flat-mount, SD-OCT, fluorescein angiography). The format is in vivo, mouse. The following applies: for CNV size or severity compared to base line controls: EETs once a day after laser photocoagulation. The source says: J Med Chem 54(12):4109-4118).
The test system of the next data set is E-selectin. Kind of data set: Real-time PCR of E-selectin mRNA in laser-captured CNV lesions. The format is in vivo, mouse. The following applies: 50 μg/kg/day i.p., 7 days post CNV induction. The protocol: Immediately after enucleation, mouse eyes were placed in optimum cutting temperature (OCT) compound and swiftly frozen. Under RNase-free conditions, eyes were cryosectioned (10 μm thickness per section) and mounted on polyethylene naphthalate glass slides (Leica). After dehydrating with washes of 50, 75, and 100% ethanol, the slides were stained with isolectin B4 at a dilution of 1:50 in 1 mM CaCl2. Laser-capture microdissection (Leica LMD 7000 system) was used to isolate chorioretinal vessels in CNV lesions, which were then placed in RNA-stabilizing buffer (RNeasy Micro Kit; Qiagen). […] Real-time PCR was conducted on a StepOne real-time PCR System (Applied Biosystems) with mouse TaqMan expression assays for the following genes (Applied Biosystems): E-selectin (Mm00441278_m1), kam-1 (Mm00516023_m1), and β-actin (Mm00607939_s1). All data were normalized to β-actin cDNA.
Background: Quantitative PCR measures a nucleic acid by following its amplification.

Data set [3] in a line: Solubility in sodium phosphate buffer (pH7.4). Type of data set: physicochemical. The following applies: pH 7.4, aqueous buffer, Mean ± SD (n = 3).
A further data set addresses T1, Rat sEH (Rattus norvegicus, UniProt P80299).
T1 sequence (P80299 1-554): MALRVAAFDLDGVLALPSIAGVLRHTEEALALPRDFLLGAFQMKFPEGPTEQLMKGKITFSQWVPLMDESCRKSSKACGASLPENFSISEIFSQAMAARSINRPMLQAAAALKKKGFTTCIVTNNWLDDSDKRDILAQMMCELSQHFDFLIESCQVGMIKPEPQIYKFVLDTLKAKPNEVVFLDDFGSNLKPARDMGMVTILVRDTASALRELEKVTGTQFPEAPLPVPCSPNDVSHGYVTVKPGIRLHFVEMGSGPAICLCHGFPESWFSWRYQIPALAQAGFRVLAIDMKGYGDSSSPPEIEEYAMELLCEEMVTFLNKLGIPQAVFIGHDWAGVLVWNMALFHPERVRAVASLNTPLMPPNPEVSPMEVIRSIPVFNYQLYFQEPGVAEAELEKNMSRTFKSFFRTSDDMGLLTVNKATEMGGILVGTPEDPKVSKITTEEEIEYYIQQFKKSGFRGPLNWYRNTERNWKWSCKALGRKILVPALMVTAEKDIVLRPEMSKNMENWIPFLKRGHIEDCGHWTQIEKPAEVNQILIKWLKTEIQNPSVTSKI
Kind of data set: sEH inhibition (IC50), fluorescent substrate CMNPC. Type of data set: biochemical. The following applies: CMNPC as a substrate; ureas found in Brassicales.

For a further data set, the target named is T2, Human sEH (Homo sapiens, UniProt P34913).
T2 sequence (P34913 1-555): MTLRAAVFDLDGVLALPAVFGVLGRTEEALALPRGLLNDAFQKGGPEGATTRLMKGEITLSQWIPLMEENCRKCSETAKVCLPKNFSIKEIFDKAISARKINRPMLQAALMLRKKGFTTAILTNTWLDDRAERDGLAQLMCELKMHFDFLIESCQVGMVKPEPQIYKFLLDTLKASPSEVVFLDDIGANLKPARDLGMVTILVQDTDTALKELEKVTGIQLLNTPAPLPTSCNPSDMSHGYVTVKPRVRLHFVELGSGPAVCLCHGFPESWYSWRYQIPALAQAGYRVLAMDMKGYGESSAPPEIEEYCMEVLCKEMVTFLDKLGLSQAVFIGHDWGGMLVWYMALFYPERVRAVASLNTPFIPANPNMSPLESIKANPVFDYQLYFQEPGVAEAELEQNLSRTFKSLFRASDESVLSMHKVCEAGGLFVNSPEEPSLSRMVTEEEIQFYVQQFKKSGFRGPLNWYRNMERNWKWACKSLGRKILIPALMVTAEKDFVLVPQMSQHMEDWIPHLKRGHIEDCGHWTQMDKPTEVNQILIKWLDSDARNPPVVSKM
In words: sEH inhibition (IC50), fluorescent substrate CMNPC. The format is biochemical. The following applies: CMNPC as a substrate; ureas found in Brassicales.

The conditions of data set [4]: sodium phosphate buffer (pH7.4); data from Kitamura et al., (2015); cited from earlier work.
Setting [5] is: C57BL/6 mice, 7 d after CNV induction.
Setting [6] is: C57BL/6 mice, 50 μg/kg/day i.p. once a day, 7 d after CNV induction.

Consider `O=C(Nc1ccc(C(F)(F)F)cc1)NC1CCC(Oc2ccc(C(=O)O)cc2)CC1` (centres unmarked), for which, in data set [1], the “Formulation (mg/mL) EtOH” value is given as 20 mg/mL, the “Formulation (mg/mL) PEG400” value worked out at 20 mg/mL and the “Formulation (mg/mL) Trioleate” value amounted to 0.625 mg/mL.
Take `CC(C)C(=O)N1CCC(NC(=O)Nc2ccc(C(F)(F)F)cc2)CC1`: in data set [1], the “Formulation (mg/mL) EtOH” value amounted to 20 mg/mL, the “Formulation (mg/mL) PEG400” value stood at 20 mg/mL and the “Formulation (mg/mL) Trioleate” value worked out at 0.625 mg/mL.
Turning to `CCCCS(=O)(=O)N1CCC(NC(=O)Nc2ccc(C(F)(F)F)cc2)CC1`, in [1], the “Formulation (mg/mL) EtOH” value is 13 mg/mL, the “Formulation (mg/mL) PEG400” value is 13 mg/mL and the “Formulation (mg/mL) Trioleate” value amounted to 1.25 mg/mL.
Take `CCCCC/C=C\C/C=C\CC1OC1C/C=C\CCCC(=O)O` (centres unmarked) [8,9-EET, reference compound]: in [2] (PBS 2.30±0.13), the “rolling velocity of PBLs” value amounted to 1.14±0.15 μm/s. Further, the “CNV size or severity compared to base line controls” value in the data set with C57BL/6 mice (setting [5]) is on record as “do not affect”.
For `CCCCC/C=C\C[C@H]1O[C@H]1C/C=C\C/C=C\CCCC(=O)O` [11,12-EET], the “rolling velocity of PBLs” value in data set [2] (PBS 2.30±0.13) was 1.41±0.45 μm/s. Further, the “mRNA level of E-selectin in CNV lesions compared to PBS injected controls” value with E-selectin is on record as “significant increase”. Further, in the data set with C57BL/6 mice (setting [5]), the “CNV size or severity compared to base line controls” value is on record as “do not affect”.
Consider `CCCCCC1OC1C/C=C\C/C=C\C/C=C\CCCC(=O)O` (centres unmarked) [14,15-EET, reference compound], for which the “rolling velocity of PBLs” value in data set [2] (PBS 2.30±0.13) is given as 1.41±0.11 μm/s. In addition, in the data set on C57BL/6 mice (setting [5]), the “CNV size or severity compared to base line controls” value is given as “do not affect”.
As for `CCC1OC1C/C=C\C/C=C\C/C=C\C/C=C\CCCC(=O)O` (centres unmarked) [17,18-EEQ, 17,18-epoxyeicosatetraenoic acid], the “rolling velocity of PBLs” value in data set [2] (PBS 0.94±0.06) was found to be 1.48±0.16 μm/s.
For `CCC1OC1C/C=C\C/C=C\C/C=C\C/C=C\C/C=C\CCC(=O)O` (centres unmarked) [19,20-EDP], the “rolling velocity of PBLs” value in data set [2] (PBS 0.94±0.06) is reported as 1.44±0.12 μm/s.
By logP is commonly meant the decadic logarithm of the partition coefficient of the neutral form, usually between octanol and water. A low value points to a more hydrophilic compound. Turning to `CCOCCOCCOCCCCCNC(=O)NC12CC3CC(CC(C3)C1)C2` [AEPU], the logP in “physchem” turned out to be 2.6.
In general, solubility refers to the concentration that dissolves in the medium under given conditions. Higher therefore signals a readily soluble substance. As usually defined, the IC50 is the concentration that gives 50% inhibition. A low value points to inhibition by little substance. On to `COc1ccc(CNC(=O)NCc2ccccc2)cc1` [BMU], for which the concentration in solution in [3] (solubility) came to 9 ± 4 µM (≈ 2.43 µg/mL). The IC50 at Rat sEH came to 0.182 µM.
Consider `O=C(NCc1ccccc1)NCc1ccccc1` [Compound 1], for which the concentration in solution in data set [3] (solubility) was 43 ± 5 µM (≈ 10.3 µg/mL). Further, on Rat sEH, it took 0.385 µM to reach half-maximal inhibition (IC50).
Molecule `COc1cccc(CNC(=O)NCc2ccccc2)c1` [Compound 2] yielded a solubility in data set [3] of 77 ± 9 µM (≈ 20.8 µg/mL). In addition, the IC50 turned out to be 0.534 µM on Human sEH and 0.308 µM at Rat sEH.
In turn, `COc1cccc(CNC(=O)NCc2cccc(OC)c2)c1` [Compound 3] gave a solubility in [3] of 101 ± 37 µM (≈ 30.3 µg/mL). Besides, the IC50 against Human sEH stood at 0.222 µM; on Rat sEH, 0.155 µM.
Turning to `CNC(=O)C(=O)NCCCC/C=C\CCCCCCCCCC(=O)O` [Compound C21, (Z)-16-(2-(methylamino)-2-oxoacetamido)hexadec-11-enoic acid], the “CNV attenuation compared to EEQ administered alone” value with C57BL/6 mice (C21 intraperitoneally once a day for 7 days, FIGS. 20A-20C) was “did not show a significant difference”. Also, in the data set on C57BL/6 mice (setting [6]), the “CNV size in choroidal flat mounts compared to control vehicle” value is “significantly reduced”, the “CNV size in cross-sectional SD-OCT compared to control vehicle” value is “significantly reduced” and the “vascular leakage in CNV lesions (fluorescein angiography) compared to control vehicle” value is reported as “significantly reduced”.
In the case of `COc1ccc(CNC(=O)NCc2ccc(OC)cc2)cc1` [MMU], in data set [4], the “Solubility (μM)” value is 11 ± 2^c μM. Further, the IC50 against Rat sEH is 0.218 µM.
